# Experimental data published in patent publication US20070010484A1, “Method for treating or inhibiting the effects of injuries or diseases that result in neuronal degeneration and method for promoting neurogenesis” (YEDA RESEARCH AND DEVELOPMENT CO. LTD., priority 2003, published 2007).
# Columns and labels:
# [1] = tested on: experimental autoimmune encephalomyelitis in mice; test: Experimental autoimmune encephalomyelitis (EAE); type: in vivo
# Experimental: Induction of experimental autoimmune encephalomyelitis. Mice were immunized s.c. at one site in the flank with 200 μl of emulsion consisting of myelin oligodendrocyte glycoprotein (MOG) […] (300 μg per mouse) emulsified in CFA supplemented with 500 μg of Mycobacterium tuberculosis (Difco, Detroit, Mich.). Clinical symptoms of experimental autoimmune encephalomyelitis (EAE) were examined and scored daily, as follows: 0, no clinical disease; 0.5, piloerection; 1, tail weakness; 1.5, tail paralysis; 2, hindlimb weakness; 3, hindlimb paralysis; 3.5, forelimb weakness; 4, forelimb paralysis; 5, moribund state or death.
# IFN-γ = IFN-γ secretion by anti-CD3-activated T cells, ELISA; type: cell-based, human; conditions: 2 h pretreatment, then anti-CD3 activation 24 h
# Experimental: Assay of IFN-γ secretion. Human T cells were purified and maintained in culture (RPMI containing 10% FCS, 1% pyruvate, 1% glutamine, 1% antibiotics, in a humidified atmosphere of 7% CO2in air), and the cells were activated for 2 h with the indicated concentrations of CSPG-DS. In order to stimulate the cells to secrete cytokines, they were replated (1×10^6 cells in 0.5 ml culture medium per well) in 24-well plates precoated with 1 μg/ml immobilized anti-CD3 mAb (non-tissue-culture grade). After 24 h the supernatants were collected and their IFN-γ contents determined by ELISA, using anti-IFN-γ mAb (Pharmingen, San Diego, Calif.) according to the manufacturer's instructions.
# PC12 cells = test: PC12 cell viability after glutamate, XTT assay; type: cell-based, rat; conditions: disaccharides 1 to 50 μg/ml for 45 min, glutamate 10^−3 M 15 min, XTT after 24 h
# Experimental: PC12 cell line. Rat pheochromocytoma (PC12) cells were cultured in DMEM containing horse serum and FCS, both at 8% (culture medium) or at 1% (differentiation medium).
# Cell viability assay. PC12 cells were seeded on collagen-coated 96-well plates at a density of 10^4 cells per well (in differentiation medium containing 100 ng/ml NGF). The cells were incubated with CSPG-DS or other disaccharides at the indicated concentrations for 45 min, then washed with PBS and exposed to glutamate (10^−3 M) for 15 min. The glutamate solution was washed away and replaced with DMEM for a further 24 h of incubation. The number of viable cells was then determined with the XTT viability kit according to the manufacturer's instructions.
# [2] = MOG-immunized mice, 5 μg injections on days 0, 3, 5 and 7
compound,measurement,setting,value
"CC(=O)N[C@H]1C(O)O[C@H](COS(=O)(=O)O)[C@H](O)[C@@H]1O[C@@H]1OC(C(=O)O)=C[C@H](O)[C@H]1O (stereo partly drawn) [CSPG-DS, 2-acetoamido-2-deoxy-3-O-(β-D-gluco-4-enepyranosyluronic acid)-6-O-sulfo-D-galactose]",duration of the disease (EAE),[1]; [2],shortened
same,symptoms of the disease (EAE score),[1]; [2],significantly attenuated
same,EAE disease with less frequent injections,"[1]; injection on day 0 only, or days 0 and 7",alleviated the disease
same,secretion of IFN-γ,IFN-γ,significant reduction
same,survival of PC12 cells exposed to glutamate,PC12 cells,protected PC12 cells from glutamate toxicity
